From patent US5374641A, “N-(3-pyridylalkyl)sulfonamide compounds which have useful pharmaceutical activity” (Terumo Kabushiki Kaisha, priority 1991, dated 1994) come the findings set out here.

Assay [1] deals with T1, thromboxane synthetase (Homo sapiens, UniProt P24557).
T1 sequence (P24557 1-533): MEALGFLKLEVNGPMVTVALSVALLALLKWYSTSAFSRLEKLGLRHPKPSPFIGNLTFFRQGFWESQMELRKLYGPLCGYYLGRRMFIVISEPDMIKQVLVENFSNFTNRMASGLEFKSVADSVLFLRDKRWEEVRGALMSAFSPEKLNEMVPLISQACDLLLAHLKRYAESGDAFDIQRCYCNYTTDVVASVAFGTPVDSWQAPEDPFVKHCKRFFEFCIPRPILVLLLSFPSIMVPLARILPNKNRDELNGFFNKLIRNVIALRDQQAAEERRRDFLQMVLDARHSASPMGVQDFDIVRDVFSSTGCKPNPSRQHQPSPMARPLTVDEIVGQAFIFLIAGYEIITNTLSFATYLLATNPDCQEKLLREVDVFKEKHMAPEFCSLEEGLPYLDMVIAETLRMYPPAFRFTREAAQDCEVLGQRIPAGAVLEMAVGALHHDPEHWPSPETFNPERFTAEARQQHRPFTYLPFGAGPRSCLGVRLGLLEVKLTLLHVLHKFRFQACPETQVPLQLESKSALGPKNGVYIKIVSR
The assay is described as follows: Test Example 2: Thromboxane synthetase inhibiting activity (human PRP, thrombin, RIA). The assay is classed as cell-based. The settings on record: for IC50: 20 U/ml thrombin, RIA, read-out: Inhibition of thromboxane A2 synthesis (IC50). The procedure:
(§1) A blood sample was collected from human fore arm using a syringe containing 3.8% sodium citrate solution (1/10 volume of the blood to be collected) and centrifuged to obtain platelet rich plasma (PRP; 3 ×10^5 platelets/μ1).
(§2) A 200 μ1 portion of the thus prepared PRP and 23.75 µl of physiological saline were put in a cuvette, the cuvette was set into the aforementioned aggregometer and the contents in the cuvette were incubated at 37° C. for 2 minutes. Thereafter, 1.25 μ1 dimethyl sulfoxide (DMSO) solution of each of the N-(3-pyridylalkyl)sulfonamide derivatives obtained in Examples 1, 3 and 7 was put in the cuvette and incubated for 3 minutes, followed by the addition of 20 U/ml solution of thrombin to cause platelet aggregation. A portion of the supernatant after aggregation reaction was mixed with diethyl ether/methanol/0.2M citric acid (30:4:1 ), and the thus formed thromboxane A2 was extracted and its quantity was analyzed by RIA using a kit of Amersham.

Assay [2] deals with platelet aggregation caused by U-46619. The assay is described as follows: Test Example 1: Platelet aggregation inhibiting activity (human PRP, U-46619). The assay is classed as cell-based. The settings on record: for IC50: Platelet, 320 nM U-46619, 37° C., read-out: Inhibitory effect against platelet aggregation caused by U-46619 (IC50); for platelet aggregation inhibiting activity (in words): U-46619. Here is the method: as §1
(§3) Platelet aggregation was measured using an aggregometer (Hematracer VI, Niko Bioscience Co., Ltd.) by putting 200 µl of the thus prepared PRP and 23.75 µl of physiological saline in a cuvette, setting the cuvette into the aggregometer and incubating the contents at 37° C. for 2 minutes, adding 1.25 μ1 dimethyl sulfoxide (DMSO) solution of each of the N-(3-pyridylalkyl)sulfonamide derivatives obtained in Examples 1, 3, 4, 6 and 8 and incubating for 3 minutes, and then adding U-46619 (Cayman Chemical Co., Inc.) which is a stable PGG2/ H2 derivative having a strong platelet aggregation causing activity.
In this instance, the term "IC50 "as used herein means concentration of the N-(3-pyridylalkyl)sulfonamide derivative of the present invention required to inhibit 50% of the platelet agglutination when platelet aggregation without introducing the inventive derivative was defined as 100%.

Assay [3] deals with T1, thromboxane synthetase. The assay is described as follows: Test Example 7: Thromboxane synthetase inhibiting activity (human PRP, thrombin, RIA). The assay is classed as cell-based. The procedure: A blood sample was collected from human fore arm using a syringe containing 3.8% sodium citrate solution (1/10 volume of the blood to be collected) and centrifuged to obtain platelet rich plasma (PRP; 3×10^5 platelets/μl ).
as §2, with “200 μl” for “200 μ1”, “23.75 μl” for “23.75 µl”, “Examples 36, 37, 38” for “Examples 1, 3”, “and 40” for “and 7”, “acid (30:4:1),” for “acid (30:4:1 ),”

The subject of assay [4] is platelet aggregation caused by U-46619. The experiment in a line: Test Examples 6: Platelet aggregation inhibiting activity (human PRP, U-46619). The assay is classed as cell-based. The procedure: A blood sample was collected from human fore arm using a syringe containing 3.8% sodium citrate solution (1/10 volume of the blood to be collected) and centrifuged to obtain platelet rich plasma (PRP; 3×10^5 platelets/μl).
as §3, with “200 μof” for “200 µl of”, “23.75 μl” for “23.75 µl”, “1.25 μl” for “1.25 μ1”, “Examples 35, 36, 37” for “Examples 1, 3, 4, 6”, “and 42” for “and 8”, “stable PGG2 /H2” for “stable PGG2/ H2”
In this instance, the term "IC50 " as used herein means concentration of the N-(3-pyridylalkyl)sulfonamide derivative of the present invention required to inhibit 50% of the platelet aggregation when platelet aggregation without introducing the inventive derivative was defined as 100%.

In assay [5] the test system is tracheal smooth muscle contraction caused by the U-46619. The experiment in a line: Test Examples 8: Competitive activity against TXA2.PGH2 (tracheal smooth muscle contraction caused by U-46619). The assay is classed as cell-based, Hartley guinea pig. The settings on record: guinea pig trachea. The procedure:
In vitro competitive activity (IC50) of the derivative of the present invention against TXA2 ·PGH2 was measured as follows.
(§4) Sections of tracheae excised from Hartley guinea pig males of 300 to 500 g in weight were suspended with a load of 0.3 g in Tyrode solution (30° C.) contained in a Magnus vessel which was aerated with a mixed gas system of 95% oxygen and 5% carbon dioxide. After about 1 hour of stabilization, U-46619 (a TXA2 ·PGH2 analog, manufactured by Cayman Chemical Co., Inc. ) was added to the solution in a concentration of 10^-7 M. Thereafter, effect of the addition of the inventive N-(3-pyridylalkyl)sulfonamide derivative obtained in Example 4 on the tracheal smooth muscle contraction caused by the U-46619 was measured and the IC50 value was calculated.

Assay [6] shares this test system. The assay is described as follows: Test Example 3: Competitive activity against TXA2.PGH2 (tracheal smooth muscle contraction caused by U-46619). The assay is classed as cell-based, Hartley guinea pig. The settings on record: guinea pig trachea. The procedure:
In vitro competitive activity (IC50) of the derivative of the present invention against TXA2· PGH2 was measured as follows.
as §4, with “TXA2· PGH2” for “TXA2 ·PGH2”, “Inc.)” for “Inc. )”

[7] abbreviates: Cavia porcellus, U-46619 10^-7 M, in vitro.

Broadly, the IC50 is the concentration that gives 50% inhibition. With `CCOC(=O)COc1ccc(C(NS(=O)(=O)c2ccc(Cl)cc2)c2cccnc2)cc1` (centres unmarked) [Example 1, ethyl 4-[4-chlorobenzenesulfonamide-(3-pyridyl)methyl]phenyloxyacetate], the IC50 came to 0.037 µM at thromboxane synthetase [1] and 96 µM in assay [2]. Besides, the “thromboxane synthetase inhibiting activity (in words)” value at thromboxane synthetase [1] (thrombin) is reported as “excellent thromboxane synthetase inhibiting activity”. The “platelet aggregation inhibiting activity (in words)” value in assay [2] is “markedly high platelet aggregation inhibiting activity”.

As for `CCOC(=O)/C(C)=C/c1ccc(C(CNS(=O)(=O)c2ccc(Cl)cc2)Cc2cccnc2)cc1` (stereo not drawn) [Example 37, ethyl 4-[1-(4-chlorobenzenesulfonamido)-3-(3-pyridyl)-2-propyl]-α-methylcinnamate], the IC50 is 8.9 µM on thromboxane synthetase [3] (20 U/ml thrombin, RIA, read-out: Inhibition of thromboxane A2 synthesis (IC50)); 66 µM in assay [4] (Platelet, 320 nM U-46619, 37° C., read-out: Inhibitory effect against platelet aggregation caused by U-46619 (IC50)); 0.088 µM in assay [5] (setting [7]). The “thromboxane synthetase inhibiting activity (in words)” value on thromboxane synthetase [3] (thrombin) is given as “excellent thromboxane synthetase inhibiting activity”. The “platelet aggregation inhibiting activity (in words)” value in assay [4] (U-46619) was “markedly high platelet aggregation inhibiting activity”. Further, the “in vitro competitive activity against TXA2.PGH2 (in words)” value in assay [5] (U-46619) is given as “excellent in vitro competitive”.

Turning to `O=C(O)COc1ccc(C(CNS(=O)(=O)c2ccc(Cl)cc2)c2cccnc2)cc1` (centres unmarked) [Example 5, 4-[2-(4-chlorobenzenesulfonamido)-1-(3-pyridyl)ethyl]phenyloxyacetic acid], the IC50 was found to be 6.7 µM in assay [6] (setting [7]) and 16 µM in assay [2]. For the same molecule, the “platelet aggregation inhibiting activity (in words)” value in assay [2] is on record as “markedly high platelet aggregation inhibiting activity”.

In the case of `CCOC(=O)COc1ccc(C(CNS(=O)(=O)c2ccc(Cl)cc2)c2cccnc2)cc1` (centres unmarked) [Example 4, ethyl 4-[2-(4-chlorobenzenesulfonamido)-1-(3-pyridyl)ethyl]phenyloxyacetate], the “in vitro competitive activity against TXA2.PGH2 (in words)” value in assay [6] (U-46619) is on record as “excellent in vitro competitive activity”. Moreover, the values for the IC50 (at thromboxane synthetase [1]; in assay [2]) were 0.033 µM and 51 µM, respectively. In addition, in assay [2], the “platelet aggregation inhibiting activity (in words)” value is “markedly high platelet aggregation inhibiting activity”.
